Assay results reported in PMC7377239, “Cardiovascular Effects of Polychlorinated Biphenyls and Their Major Metabolites” (Environmental Health Perspectives, 2020).
Counter-ions that a name gives are not always drawn. Like-named read-outs stand apart in the source and are kept apart here.

Test system: iCell cardiomyocytes (human iPSC-derived cardiomyocytes)
Assay: Intracellular Ca2+ flux / beating parameters in iCell cardiomyocytes (FLIPR tetra), 90 min or 24 h
Format: cell-based
Conditions: for activity at 0.01 µM / activity at 0.1 µM / activity at 1 µM / activity at 10 µM / activity at 100 µM: Homo sapiens, Cardiomyocyte, 0.00 µM = 100.00; for activity at 0.1 µM: 0.10 µM
Method in brief: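 PODs were defined as the concentration crossing one SD of the vehicle-control means (0.5% DMSO) on four-parameter logistic fits of Ca2+ trace metrics (peak height, frequency, peak-spacing CV, decay/rise ratio). Traces came from 100 s, 8 Hz FLIPR reads at 37 °C on calcium-dye-loaded iCell cardiomyocytes. Before reading, cells were treated for 90 min or 24 h from 5× chemical plates spanning 0.05–500 µM, in triplicate.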

[1] = 1.5 h, read-out: cm.amp.avg.90min
[2] = 1.5 h, read-out: cm.amp.cv.90min
[3] = 1.5 h, read-out: cm.decay.rise.90min
[4] = 1.5 h, read-out: cm.spacing.cv.90min
[5] = 24 h, read-out: cm.amp.avg.24hrs
[6] = 24 h, read-out: cm.amp.cv.24hrs
[7] = 24 h, read-out: cm.decay.rise.24hrs
[8] = 24 h, read-out: cm.spacing.cv.24hrs

Oc1ccc(-c2ccc(Cl)cc2)cc1 [4'-OH PCB3]
activity at 0.01 µM [1]: 95.4%
activity at 0.01 µM [2]: 111%
activity at 0.01 µM (1.5 h, read-out: cm.bpm.90min): 97.8%
activity at 0.01 µM [3]: 97.5%
activity at 0.01 µM [4]: 120%
activity at 0.1 µM [1]: 101%
activity at 0.1 µM [2]: 107%
activity at 0.1 µM (1.5 h, read-out: cm.bpm.90min): 100%
activity at 0.1 µM [3]: 97.1%
activity at 0.1 µM [4]: 108%
activity at 1 µM [1]: 105%
activity at 1 µM [2]: 100%
activity at 1 µM (1.5 h, read-out: cm.bpm.90min): 104%
activity at 1 µM [3]: 95.9%
activity at 1 µM [4]: 106%
activity at 10 µM [1]: 97.2%
activity at 10 µM [2]: 100%
activity at 10 µM (1.5 h, read-out: cm.bpm.90min): 118%
activity at 10 µM [3]: 89.6%
activity at 10 µM [4]: 116%
activity at 100 µM [1]: 0%
activity at 100 µM [2]: 0%
activity at 100 µM (1.5 h, read-out: cm.bpm.90min): 0%
activity at 100 µM [3]: 0%
activity at 100 µM [4]: 0%
activity at 0.01 µM [5]: 91%
activity at 0.01 µM [6]: 37.2%
activity at 0.01 µM (24 h, read-out: cm.bpm.24hrs): 53.5%
activity at 0.01 µM [7]: 43%
activity at 0.01 µM [8]: 53.2%
activity at 0.1 µM [5]: 31.1%
activity at 0.1 µM [6]: 82.3%
activity at 0.1 µM (24 h, read-out: cm.bpm.24hrs): 54.4%
activity at 0.1 µM [7]: 43.8%
activity at 0.1 µM [8]: 53.7%
activity at 1 µM [5]: 32%
activity at 1 µM [6]: 67.1%
activity at 1 µM (24 h, read-out: cm.bpm.24hrs): 49.6%
activity at 1 µM [7]: 51%
activity at 1 µM [8]: 47.2%
activity at 10 µM [5]: 54.4%
activity at 10 µM [6]: 55%
activity at 10 µM (24 h, read-out: cm.bpm.24hrs): 48.7%
activity at 10 µM [7]: 58.5%
activity at 10 µM [8]: 51.4%
activity at 100 µM [5]: 0%
activity at 100 µM [6]: 0%
activity at 100 µM (24 h, read-out: cm.bpm.24hrs): 0%
activity at 100 µM [7]: 0%
activity at 100 µM [8]: 0%

COc1ccc(-c2ccc(Cl)cc2)cc1 [4'-OMe PCB3]
activity at 0.01 µM [1]: 96.9%
activity at 0.01 µM [2]: 88.9%
activity at 0.01 µM (1.5 h, read-out: cm.bpm.90min): 103%
activity at 0.01 µM [3]: 99.4%
activity at 0.01 µM [4]: 117%
activity at 0.1 µM [1]: 93.5%
activity at 0.1 µM [2]: 102%
activity at 0.1 µM (1.5 h, read-out: cm.bpm.90min): 100%
activity at 0.1 µM [3]: 102%
activity at 0.1 µM [4]: 99.4%
activity at 1 µM [1]: 106%
activity at 1 µM [2]: 117%
activity at 1 µM (1.5 h, read-out: cm.bpm.90min): 96.5%
activity at 1 µM [3]: 95%
activity at 1 µM [4]: 92%
activity at 10 µM [1]: 103%
activity at 10 µM [2]: 96%
activity at 10 µM (1.5 h, read-out: cm.bpm.90min): 107%
activity at 10 µM [3]: 95.2%
activity at 10 µM [4]: 96.4%
activity at 100 µM [1]: 83.2%
activity at 100 µM [2]: 175%
activity at 100 µM (1.5 h, read-out: cm.bpm.90min): 208%
activity at 100 µM [3]: 94.6%
activity at 100 µM [4]: 140%
activity at 0.01 µM [5]: 135%
activity at 0.01 µM [6]: 92.2%
activity at 0.01 µM (24 h, read-out: cm.bpm.24hrs): 111%
activity at 0.01 µM [7]: 98%
activity at 0.01 µM [8]: 116%
activity at 0.1 µM [5]: 30.6%
activity at 0.1 µM [6]: 60.1%
activity at 0.1 µM (24 h, read-out: cm.bpm.24hrs): 50.6%
activity at 0.1 µM [7]: 49%
activity at 0.1 µM [8]: 49.7%
activity at 1 µM [5]: 81.2%
activity at 1 µM [6]: 110%
activity at 1 µM (24 h, read-out: cm.bpm.24hrs): 95.5%
activity at 1 µM [7]: 98.7%
activity at 1 µM [8]: 85.6%
activity at 10 µM [5]: 94.7%
activity at 10 µM [6]: 93.1%
activity at 10 µM (24 h, read-out: cm.bpm.24hrs): 119%
activity at 10 µM [7]: 90.5%
activity at 10 µM [8]: 112%
activity at 100 µM [5]: 30.7%
activity at 100 µM [6]: 58%
activity at 100 µM (24 h, read-out: cm.bpm.24hrs): 81.2%
activity at 100 µM [7]: 38.5%
activity at 100 µM [8]: 76.1%

COc1ccc(-c2ccc(Cl)cc2)cc1 [4'-OMe-PCB 3, 4′-methoxy-4-chlorobiphenyl]
inotropic effect (cell beating parameters) (iPSC-CMs, concentration-response 0.01-100 μM, 90 min and 24 h): positive inotropic effects

O=S(=O)(O)Oc1ccc(-c2ccc(Cl)cc2)cc1 [4'-yl PCB 3 sulfate]
activity at 0.01 µM [1]: 91%
activity at 0.01 µM [2]: 97%
activity at 0.01 µM (1.5 h, read-out: cm.bpm.90min): 100%
activity at 0.01 µM [3]: 100%
activity at 0.01 µM [4]: 138%
activity at 0.1 µM [1]: 100%
activity at 0.1 µM [2]: 92%
activity at 0.1 µM (1.5 h, read-out: cm.bpm.90min): 100%
activity at 0.1 µM [3]: 98.1%
activity at 0.1 µM [4]: 107%
activity at 1 µM [1]: 98%
activity at 1 µM [2]: 75.3%
activity at 1 µM (1.5 h, read-out: cm.bpm.90min): 100%
activity at 1 µM [3]: 95.6%
activity at 1 µM [4]: 90.9%
activity at 10 µM [1]: 93%
activity at 10 µM [2]: 105%
activity at 10 µM (1.5 h, read-out: cm.bpm.90min): 104%
activity at 10 µM [3]: 97.7%
activity at 10 µM [4]: 104%
activity at 100 µM [1]: 0%
activity at 100 µM [2]: 0%
activity at 100 µM (1.5 h, read-out: cm.bpm.90min): 0%
activity at 100 µM [3]: 0%
activity at 100 µM [4]: 0%
activity at 0.01 µM [5]: 114%
activity at 0.01 µM [6]: 86.7%
activity at 0.01 µM (24 h, read-out: cm.bpm.24hrs): 102%
activity at 0.01 µM [7]: 89.3%
activity at 0.01 µM [8]: 96.8%
activity at 0.1 µM [5]: 46.3%
activity at 0.1 µM [6]: 44.4%
activity at 0.1 µM (24 h, read-out: cm.bpm.24hrs): 47.7%
activity at 0.1 µM [7]: 52.8%
activity at 0.1 µM [8]: 48.2%
activity at 1 µM [5]: 68%
activity at 1 µM [6]: 33.8%
activity at 1 µM (24 h, read-out: cm.bpm.24hrs): 46.8%
activity at 1 µM [7]: 51.1%
activity at 1 µM [8]: 55.8%
activity at 10 µM [5]: 89.3%
activity at 10 µM [6]: 96.4%
activity at 10 µM (24 h, read-out: cm.bpm.24hrs): 101%
activity at 10 µM [7]: 105%
activity at 10 µM [8]: 108%
activity at 100 µM [5]: 112%
activity at 100 µM [6]: 68.8%
activity at 100 µM (24 h, read-out: cm.bpm.24hrs): 79.2%
activity at 100 µM [7]: 113%
activity at 100 µM [8]: 103%
